17 compounds from patent US4080460A, “Biguanides and therapeutic compositions and uses of the same” (Aron Sarl, priority 1975, dated 1978) can be followed below.

Structures can show the parent of a compound that is named as a salt. Where two headings read alike, the source gives them in different places.

Series [1] is described as follows: acute toxicity investigation in mice. As to conditions: mouse, in vivo.
The subject of series [2] is uptake of ^3 H noradrenalin by the synaptosomes of a rat hypothalamus homogenate. Put plainly: inhibition of the uptake of ^3 H noradrenalin by the synaptosomes of a rat hypothalamus homogenate. In kind it is biochemical. To be noted: with respect to the control test. An excerpt:
The compounds of the formula (I) are capable of modifying the accumulation of noradrenalin and particularly to inhibit the uptake of ^3 H noradrenalin by the synaptosomes of a rat hypothalamus homogenate prepared according to Banerjee, Snyder and Mechoulam (J. Pharmacol. Exp. Ther., 194, 1, 74, 1975). This inhibition of the uptake of ^3 H noradrenaline is a known property of various compounds having an activity on the central nervous system and/or on the sympathetic nervous system, particularly a hypotensive effect (J. Glowinski and J. Axelrod, Effects of Drugs on the Disposition of ^3 H norepinephrine in the Rat Brain, Pharmacological Reviews, Vol. 18, n°1, Part I, 1966).
They are expressed as percent inhibition of the uptake with respect to the control test.

The test system of series [3] is Doca rats. Put plainly: action on the control of blood pressure in Doca rats. In kind it is in vivo, rat. To be noted: oral, 2 × 3 mg/kg. The protocol: (§1) The above results are confirmed by the results of an investigation of the action on the control of blood pressure. On oral administration of a dosage of 2 × 3 mg/kg of compound to Doca rats (Technique according to Green and co-workers, Am. J. Physiol, 1952, 170, p.94) and to Grollman rats (Techniques according to Grollman, Proc. Soc. Exp. Biol. Med., 1944, 57, p.102), the precent decrease of the systolic blood pressure with respect to its original value is noted.

For series [4], the system named is Grollman rats. The experiment in a line: action on the control of blood pressure in Grollman rats. Type of series: in vivo, rat. To be noted: oral, 2 × 3 mg/kg. The protocol:
as §1

The mark [5] stands for this setting: po, read-out: LD50 (mg/kg) p.o.
The mark [6] stands for this setting: 5 × 10^-4 M ultimate concentration.
Where [7] appears, read: iv, read-out: LD50 (mg/kg) i.v.
[8] abbreviates: 5 × 10^-5 M ultimate concentration.
The mark [9] stands for this setting: 5 × 10^-6 M ultimate concentration.

For the compound `CCN(C(=N)NC(=N)N)c1cc(C)on1` [Example 16], the LD50 in series [1] (setting [5]) is greater than 750 mg/kg. Besides, the “inhibition % of the uptake of ^3 H noradrenalin” value (shortened to “inhibition %”) in series [2] (setting [6]) is on record as 37.9%.
On to `Cc1cc(N(C)C(=N)NC(=N)N)no1` [Example 7], for which the “inhibition %” value in series [2] (setting [6]) was 48.1%. The “percent decrease of the systolic blood pressure with respect to its original value” (“percent decrease” below) in series [3] was determined as 15%.
As for `Cc1conc1NC(=N)NC(=N)N(C)C` [Example 11], the results for the LD50 in series [1] (setting [7]) and in series [1] (setting [5]) were 40 mg/kg and 300 mg/kg, respectively. In addition, in series [2] (setting [6]), the “inhibition %” value came out at 60.1%. In series [3], the “percent decrease” value is recorded as 15%.
As to `N=C(N)NC(=N)Nc1ccon1` [Example 9], the LD50 was greater than 150 mg/kg in series [1] (setting [7]) and greater than 1000 mg/kg in series [1] (setting [5]). Moreover, in series [2] (setting [6]), the “inhibition %” value came out at 68.6%.
For `Cc1onc(N(C)C(=N)NC(=N)N)c1C` [Example 10], the LD50 in series [1] (setting [7]) is 100 mg/kg; in series [1] (setting [5]), greater than 500 mg/kg. For the same compound, the “inhibition %” value in series [2] (setting [6]) is reported as 19.5%.
For `CCCCc1cc(NC(=N)NC(=N)N)no1` [Example 5], in series [1] (setting [5]), the LD50 turned out to be 600 mg/kg. For the same compound, the “inhibition %” value in series [2] (setting [6]) is 69.5%. The “percent decrease” value in series [3] stood at 10%.
In the case of `CC(C)c1cc(NC(=N)NC(=N)N)no1` [Example 6], in series [1] (setting [5]), the LD50 was 200 mg/kg. Further, the “inhibition %” value in series [2] (setting [8]) is reported as 54.6%.
As for `Cc1conc1NC(=N)NC(=N)N` [Example 8], the values for the LD50 in series [1] (setting [7]) and in series [1] (setting [5]) were 70 mg/kg and 300 mg/kg, respectively. The “inhibition %” value in series [2] (setting [8]) amounted to 55%; in series [2] (setting [9]) it was 36%. Besides, the “percent decrease” value in series [3] and in series [4] was 15% throughout.
`CCc1cc(NC(=N)NC(=N)N)no1` [Example 4]: the LD50 in series [1] (setting [7]) turned out to be 45 mg/kg; in series [1] (setting [5]), 500 mg/kg. For the same compound, in series [2] (setting [6]), the “inhibition %” value is listed as 52.7%.
With `Cc1cc(NC(=N)NC(=N)N2CCN(C)CC2)no1` [Example 19], the LD50 was 100 mg/kg in series [1] (setting [7]) and 2000 mg/kg in series [1] (setting [5]). The “inhibition %” value in series [2] (setting [6]) is reported as 53.8%. Besides, in series [4], the “percent decrease” value was 20%.
For `Cc1cc(NC(=N)NC(=N)N)no1` [Example 1, (5-methyl-isoxazol-3-yl)biguanide hydrochloride], the LD50 in series [1] (setting [7]) is 115 mg/kg; in series [1] (setting [5]), 700 mg/kg. Moreover, the “percent decrease” value in series [3] was 25%; in series [4], 20%.
For the compound `CCc1conc1NC(=N)NC(=N)N` [Example 14], the LD50 in series [1] (setting [5]) is 500 mg/kg. Moreover, the “inhibition %” value in series [2] (setting [8]) is given as 61.8%; in series [2] (setting [9]), 46.5%.
As for `Cc1noc(NC(=N)NC(=N)N(C)C)c1C` [Example 22], the LD50 in series [1] (setting [5]) was found to be 700 mg/kg. Also, the “inhibition %” value in series [2] (setting [6]) stood at 38.1%.
Turning to `CCCCNC(=N)NC(=N)Nc1cc(C)on1` [Example 13], the LD50 in series [1] (setting [7]) stood at 35 mg/kg; in series [1] (setting [5]) it was 250 mg/kg. The “inhibition %” value in series [2] (setting [6]) worked out at 63.1%.
In the case of `CNC(=N)NC(=N)Nc1cc(C)on1` [Example 2, 1-methyl-5-(5-methyl-isoxazol-3-yl)biguanide], the LD50 in series [1] (setting [5]) was 900 mg/kg. Also, the “inhibition %” value in series [2] (setting [6]) is on record as 53.6%.
On to `Cc1cc(NC(=N)NC(=N)N(C)C)no1` [Example 3], for which the LD50 in series [1] (setting [7]) came to 140 mg/kg; in series [1] (setting [5]), 800 mg/kg. Further, the “inhibition %” value in series [2] (setting [6]) turned out to be 47.9%. In series [4], the “percent decrease” value was found to be 10%.
On to `Cc1cc(NC(=N)NC(=N)N2CCOCC2)no1` [Example 20], for which the figures for the LD50 in series [1] (setting [7]) and in series [1] (setting [5]) were 100 mg/kg and 750 mg/kg, respectively. The “inhibition %” value in series [2] (setting [6]) amounted to 46.6%.
